Source: ChEMBL document CHEMBL1201862, “PubChem BioAssay data set” (2004)
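Dose response: 5 concentrations. Exposure: 48 h. Format: 96-well plates. Endpoint: linear interpolation; highest concentration if not reached. Abbreviation: GI50, concentration required for 50% inhibition of growth.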 Activity calls are given as the source filed them. Cut-off read from the data, not from the text of the source: active = GI50 up to about 1.1 µM and inactive = higher.

What was measured:
Test in all cases: growth of human tumour cells (NCI), 48 h
OVCAR-4 = tested on: OVCAR-4
LOX IMVI = tested on: LOX IMVI
U-251 = tested on: U-251
SW-620 = tested on: SW-620
NCI-H226 = tested on: NCI-H226
MCF7 = tested on: MCF7
SR = tested on: SR
COLO 205 = tested on: COLO 205
SF-268 = tested on: SF-268
CCRF-CEM = tested on: CCRF-CEM
OVCAR-8 = tested on: OVCAR-8
A549 = tested on: A549
Malme-3M = tested on: Malme-3M
SNB-19 = tested on: SNB-19
HOP-92 = tested on: HOP-92
OVCAR-3 = tested on: OVCAR-3
Hs-578T = tested on: Hs-578T
MDA-MB-435 = tested on: MDA-MB-435
KM12 = tested on: KM12
HL-60 = tested on: HL-60

Row | Structure (SMILES) | GI50 (OVCAR-4) | GI50 (LOX IMVI) | GI50 (U-251) | GI50 (SW-620) | GI50 (NCI-H226) | GI50 (MCF7) | GI50 (SR) | GI50 (COLO 205) | GI50 (SF-268) | GI50 (CCRF-CEM) | GI50 (OVCAR-8) | GI50 (A549) | GI50 (Malme-3M) | GI50 (SNB-19) | GI50 (HOP-92) | GI50 (OVCAR-3) | GI50 (Hs-578T) | GI50 (MDA-MB-435) | GI50 (KM12) | GI50 (HL-60)
1 | Cn1c(=O)c2[nH]c(CCC(=O)O)nc2n(C)c1=O | > 100 µM (inactive) | > 100 µM (inactive) | > 100 µM (inactive) | > 100 µM (inactive) | > 100 µM (inactive) | > 100 µM (inactive) | > 100 µM (inactive) | > 100 µM (inactive) | > 100 µM (inactive) | > 100 µM (inactive) | > 100 µM (inactive) | > 100 µM (inactive) | > 100 µM (inactive) | > 100 µM (inactive) | > 100 µM (inactive) | > 100 µM (inactive) | > 100 µM (inactive) | > 100 µM (inactive) | > 100 µM (inactive) | > 100 µM (inactive)
2 | O=C(O)c1ccccc1NC(c1ccccc1)c1ccc2cccnc2c1O (stereo not given) | 5.78 µM (inactive) | 7.96 µM (inactive) | 4.08 µM (inactive) | 5.4 µM (inactive) | 4.27 µM (inactive) | 4.85 µM (inactive) | 2.06 µM (inactive) | 15.7 µM (inactive) | 5.19 µM (inactive) | 1.93 µM (inactive) | 4.85 µM (inactive) | 5.56 µM (inactive) | 15.8 µM (inactive) | 5.24 µM (inactive) | 26.9 µM (inactive) | 3.63 µM (inactive) | 22.4 µM (inactive) | 14.8 µM (inactive) | 5.31 µM (inactive) | 1.2 µM (inactive)
3 | CC1S/C(=N\N=C2/C(=O)Nc3ccc(Br)cc32)N(C2CCCCC2)C1=O (stereo not given) | 1.89 µM (inactive) | 3.62 µM (inactive) | 2.54 µM (inactive) | 11.7 µM (inactive) | 4.03 µM (inactive) | 12.5 µM (inactive) | 5.06 µM (inactive) | 3.85 µM (inactive) | 6.38 µM (inactive) | 39.8 µM (inactive) |  | 3.41 µM (inactive) | 9.23 µM (inactive) | 4.06 µM (inactive) | 7.46 µM (inactive) | 2.75 µM (inactive) | 3.22 µM (inactive) | 5.37 µM (inactive) | 4.65 µM (inactive) | 5.85 µM (inactive)
4 | CC(=O)NCCCCN(CCCNC(C)=O)C(=O)CNS(=O)(=O)c1cccc2c(N(C)C)cccc12 | > 100 µM (inactive) | > 100 µM (inactive) | > 100 µM (inactive) | > 100 µM (inactive) | > 100 µM (inactive) | > 100 µM (inactive) | > 100 µM (inactive) | > 100 µM (inactive) | > 100 µM (inactive) | > 100 µM (inactive) |  | > 100 µM (inactive) | > 100 µM (inactive) | > 100 µM (inactive) | > 100 µM (inactive) | > 100 µM (inactive) | > 100 µM (inactive) | > 100 µM (inactive) |  | > 100 µM (inactive)
5 | Clc1ccc(/C=c2\nc(-c3ccccc3)n3c2nc2ccccc23)cc1 | 56.4 µM (inactive) | > 100 µM (inactive) | 49.1 µM (inactive) | > 100 µM (inactive) | > 100 µM (inactive) | > 100 µM (inactive) | > 100 µM (inactive) | > 100 µM (inactive) | 34.4 µM (inactive) | > 100 µM (inactive) | 32.7 µM (inactive) | > 100 µM (inactive) | > 100 µM (inactive) | > 100 µM (inactive) | > 100 µM (inactive) | 51.9 µM (inactive) | 49.3 µM (inactive) | > 100 µM (inactive) | > 100 µM (inactive) | > 100 µM (inactive)
6 | Clc1ccc(/N=C/C=C/Nc2ccc(Cl)cn2)nc1 | 7.52 µM (inactive) | 7.73 µM (inactive) | 8.26 µM (inactive) | 4.9 µM (inactive) | 16.1 µM (inactive) | 16.4 µM (inactive) | 2.78 µM (inactive) | 12.6 µM (inactive) | 16.4 µM (inactive) | 3.22 µM (inactive) | 10.4 µM (inactive) | 14.5 µM (inactive) | 17.3 µM (inactive) | 16 µM (inactive) | 16.3 µM (inactive) | 13.5 µM (inactive) | 5.14 µM (inactive) | 14.5 µM (inactive) | 8.53 µM (inactive) | 2.12 µM (inactive)
7 | Cc1cc2nc3[nH]nc(N)c3nc2cc1C | > 100 µM (inactive) | > 100 µM (inactive) | > 100 µM (inactive) | > 100 µM (inactive) | 17.7 µM (inactive) | > 100 µM (inactive) | > 100 µM (inactive) | 44.4 µM (inactive) | > 100 µM (inactive) | > 100 µM (inactive) | 88.7 µM (inactive) | > 100 µM (inactive) | > 100 µM (inactive) | > 100 µM (inactive) | > 100 µM (inactive) |  | 52.7 µM (inactive) | > 100 µM (inactive) | > 100 µM (inactive) | > 100 µM (inactive)
8 | CCN(CC)CCn1nc(N)c2nc3ccccc3nc21 | > 100 µM (inactive) | > 100 µM (inactive) | > 100 µM (inactive) | 93.5 µM (inactive) | > 100 µM (inactive) | > 100 µM (inactive) | 59.8 µM (inactive) |  | > 100 µM (inactive) | > 100 µM (inactive) | > 100 µM (inactive) | > 100 µM (inactive) | > 100 µM (inactive) | > 100 µM (inactive) | > 100 µM (inactive) | > 100 µM (inactive) | > 100 µM (inactive) | > 100 µM (inactive) | > 100 µM (inactive) | > 100 µM (inactive)
9 | COc1ccc(C(SC2C(O)C(CO)OC2n2ccc(N)nc2=O)(c2ccccc2)c2ccc(OC)cc2)cc1 (stereo not given) | 24.8 µM (inactive) | 17.7 µM (inactive) | 15.6 µM (inactive) | 23.6 µM (inactive) | 14.2 µM (inactive) | 17.3 µM (inactive) | 12.4 µM (inactive) | 14.6 µM (inactive) | 17.7 µM (inactive) | 20.2 µM (inactive) | 28.1 µM (inactive) | 18.5 µM (inactive) | 15 µM (inactive) | 16 µM (inactive) | 17.5 µM (inactive) | 18.7 µM (inactive) | 18.4 µM (inactive) | 10.9 µM (inactive) | 19.7 µM (inactive) | 26.9 µM (inactive)
10 | Cc1cc2c(cc1Cl)SC(c1ccccc1O)NS2(=O)=O (stereo not given) | 63.7 µM (inactive) | 43.8 µM (inactive) | 72.9 µM (inactive) | 19.2 µM (inactive) | 86.5 µM (inactive) | 36.9 µM (inactive) | 16.4 µM (inactive) | 20.8 µM (inactive) | 91.4 µM (inactive) | < 0.01 µM (active) | > 100 µM (inactive) | > 100 µM (inactive) | 24.4 µM (inactive) | 81.3 µM (inactive) | 54.1 µM (inactive) | 21.7 µM (inactive) | 38.5 µM (inactive) | 45.7 µM (inactive) | 94 µM (inactive) | 59.7 µM (inactive)
11 | O=C(NCCCl)N(O)C(=O)Nc1ccccc1 | > 100 µM (inactive) | > 100 µM (inactive) | > 100 µM (inactive) | > 100 µM (inactive) | > 100 µM (inactive) | > 100 µM (inactive) | > 100 µM (inactive) | > 100 µM (inactive) | > 100 µM (inactive) | > 100 µM (inactive) | > 100 µM (inactive) | > 100 µM (inactive) | > 100 µM (inactive) | > 100 µM (inactive) | > 100 µM (inactive) | > 100 µM (inactive) | > 100 µM (inactive) | > 100 µM (inactive) | > 100 µM (inactive) | > 100 µM (inactive)
12 | CC(C)[C@H](NC(=O)[C@@H](O)[C@H](N)Cc1ccccc1)C(=O)N[C@@H](Cc1ccccc1)C(=O)O | > 100 µM (inactive) | > 100 µM (inactive) | > 100 µM (inactive) | > 100 µM (inactive) | > 100 µM (inactive) | > 100 µM (inactive) | > 100 µM (inactive) | > 100 µM (inactive) | > 100 µM (inactive) | > 100 µM (inactive) | > 100 µM (inactive) | > 100 µM (inactive) | > 100 µM (inactive) | > 100 µM (inactive) | > 100 µM (inactive) | > 100 µM (inactive) | > 100 µM (inactive) | > 100 µM (inactive) | > 100 µM (inactive) | > 100 µM (inactive)
13 | O=C(NNc1cn[nH]c(=O)n1)c1cccc2nc3ccccc3nc12 | 68.2 µM (inactive) | 38.8 µM (inactive) | 27.9 µM (inactive) | > 100 µM (inactive) | 82.2 µM (inactive) | > 100 µM (inactive) | 10.7 µM (inactive) | > 100 µM (inactive) | 38.7 µM (inactive) | 45.7 µM (inactive) | 39.3 µM (inactive) | > 100 µM (inactive) | 47.5 µM (inactive) | 74 µM (inactive) | 45.2 µM (inactive) | 68.7 µM (inactive) | 63.2 µM (inactive) | > 100 µM (inactive) | > 100 µM (inactive) | 22.4 µM (inactive)
14 | N#CC(C#N)=C(N)/C(C#N)=C/c1ccc2[nH]ccc2c1 | > 100 µM (inactive) | > 100 µM (inactive) | > 100 µM (inactive) | > 100 µM (inactive) | > 100 µM (inactive) | > 100 µM (inactive) | > 100 µM (inactive) | > 100 µM (inactive) | > 100 µM (inactive) | > 100 µM (inactive) | > 100 µM (inactive) | > 100 µM (inactive) | > 100 µM (inactive) | > 100 µM (inactive) | > 100 µM (inactive) | > 100 µM (inactive) | > 100 µM (inactive) | > 100 µM (inactive) | > 100 µM (inactive) | > 100 µM (inactive)
